Measured values: the NIST ThermoML archive (doi:10.1021/je050403k)
Where “and” joins values, the source holds several entries; their conditions need not be identical. Equal values may be shown once. Numbers after ± are expanded uncertainties.

Conditions: Liquid

C=CCC [1-butene]
vapor or sublimation pressure (364.51 K): 1510.5 ± 10 kPa

CC(C)C [2-methylpropane]
vapor or sublimation pressure (364.5 K): 1685.6 ± 12 kPa

C=C(C)C [2-methylpropene]
vapor or sublimation pressure (364.51 K): 1546.2 ± 11 kPa

C/C=C/C [(E)-2-butene]
vapor or sublimation pressure (364.5 K): 1269.2 ± 8.9 kPa

C/C=C\C [(Z)-2-butene]
vapor or sublimation pressure (365.43 K): 1213 ± 8.5 kPa

CC(C)=O [acetone]
vapor or sublimation pressure (364.51 K): 297.1 ± 2.1 kPa and 294.3 ± 2.1 kPa and 296.4 ± 2.1 kPa
vapor or sublimation pressure (364.52 K): 296.8 ± 2.1 kPa
vapor or sublimation pressure (365.43 K): 302.56 ± 2.1 kPa

CCCC [butane]
vapor or sublimation pressure (364.51 K): 1284.5 ± 8.9 kPa
